Laboratory results from the NIST ThermoML archive (doi:10.1021/acs.jced.5b00367).
± gives the expanded uncertainty stated by the source.

Experiment: mn = molality of the nth substance listed, in mol/kg
Conditions: 303.15 K, 100 kPa, Liquid, Alternating current cell with electrodes

CCCCCCCCCCCCCCCC[N+](C)(C)C.[Br-] [N,N,N-trimethyl-1-hexadecanaminium bromide] + O
electrical conductivity (m1 = 0.0002): 0.0028 ± 0.0011 S/m | electrical conductivity (m1 = 0.0005): 0.0061 ± 0.0024 S/m | electrical conductivity (m1 = 0.0008): 0.0092 ± 0.0037 S/m | electrical conductivity (m1 = 0.00085): 0.01 ± 0.004 S/m | electrical conductivity (m1 = 0.0009): 0.0103 ± 0.0041 S/m | electrical conductivity (m1 = 0.001): 0.011 ± 0.0044 S/m | electrical conductivity (m1 = 0.0012): 0.012 ± 0.0048 S/m | electrical conductivity (m1 = 0.0014): 0.0128 ± 0.0051 S/m | electrical conductivity (m1 = 0.0016): 0.0135 ± 0.0054 S/m | electrical conductivity (m1 = 0.002): 0.0145 ± 0.0058 S/m

CCCCCCCCCC[N+](CC)(CC)CCCCCCCCCC.[Br-] [didecyldiethylammonium bromide] + O
electrical conductivity (m1 = 1e-05): 0.00039 ± 0.00019 S/m | electrical conductivity (m1 = 2e-05): 0.0006 ± 0.00025 S/m | electrical conductivity (m1 = 3e-05): 0.00072 ± 0.0003 S/m | electrical conductivity (m1 = 4e-05): 0.00143 ± 0.00058 S/m | electrical conductivity (m1 = 5e-05): 0.00224 ± 0.0009 S/m | electrical conductivity (m1 = 6e-05): 0.00293 ± 0.0012 S/m | electrical conductivity (m1 = 0.0001): 0.0034 ± 0.0014 S/m | electrical conductivity (m1 = 0.0005): 0.0048 ± 0.0019 S/m | electrical conductivity (m1 = 0.001): 0.0092 ± 0.0037 S/m | electrical conductivity (m1 = 0.005): 0.0106 ± 0.0042 S/m | electrical conductivity (m1 = 0.01): 0.0132 ± 0.0053 S/m | electrical conductivity (m1 = 0.015): 0.016 ± 0.0064 S/m | electrical conductivity (m1 = 0.02): 0.0182 ± 0.0073 S/m

CCCCCCCCCCCC[N+](CC)(CC)CCCCCCCCCCCC.[Br-] [didodecyldiethylammonium bromide] + O
electrical conductivity (m1 = 3e-05): 0.00146 ± 0.00059 S/m | electrical conductivity (m1 = 4e-05): 0.00189 ± 0.00076 S/m | electrical conductivity (m1 = 5e-05): 0.0025 ± 0.001 S/m | electrical conductivity (m1 = 6e-05): 0.0032 ± 0.0013 S/m | electrical conductivity (m1 = 0.0001): 0.00362 ± 0.0014 S/m | electrical conductivity (m1 = 0.0005): 0.00484 ± 0.0019 S/m | electrical conductivity (m1 = 0.001): 0.00678 ± 0.0027 S/m | electrical conductivity (m1 = 0.002): 0.00928 ± 0.0037 S/m | electrical conductivity (m1 = 0.003): 0.0121 ± 0.0049 S/m

CCCCCCCCCCCCCCCC[N+](CC)(CC)CCCCCCCCCCCCCCCC.[Br-] [diethyldihexadecylammonium bromide] + O
electrical conductivity (m1 = 5e-06): 0.00045 ± 0.00023 S/m | electrical conductivity (m1 = 1e-05): 0.00081 ± 0.00035 S/m | electrical conductivity (m1 = 1.5e-05): 0.00106 ± 0.00042 S/m | electrical conductivity (m1 = 3e-05): 0.00114 ± 0.00046 S/m | electrical conductivity (m1 = 4e-05): 0.00124 ± 0.0005 S/m | electrical conductivity (m1 = 5e-05): 0.00132 ± 0.00053 S/m | electrical conductivity (m1 = 6e-05): 0.00136 ± 0.00054 S/m

CCCCCCCCCCCC[N+](C)(C)C.[Br-] [dodecyltrimethylammonium bromide] + O
electrical conductivity (m1 = 0.001): 0.014 ± 0.0056 S/m | electrical conductivity (m1 = 0.005): 0.055 ± 0.022 S/m | electrical conductivity (m1 = 0.01): 0.1 ± 0.04 S/m | electrical conductivity (m1 = 0.012): 0.12 ± 0.048 S/m | electrical conductivity (m1 = 0.015): 0.15 ± 0.06 S/m | electrical conductivity (m1 = 0.0181): 0.165 ± 0.066 S/m | electrical conductivity (m1 = 0.0201): 0.165 ± 0.066 S/m | electrical conductivity (m1 = 0.0252): 0.18 ± 0.072 S/m | electrical conductivity (m1 = 0.0302): 0.195 ± 0.078 S/m | electrical conductivity (m1 = 0.0402): 0.23 ± 0.092 S/m | electrical conductivity (m1 = 0.0502): 0.26 ± 0.1 S/m
